Measured values reported in ChEMBL document CHEMBL3351975, “Design and synthesis of new series of coumarin-aminopyran derivatives possessing potential anti-depressant-like activity” (Bioorg Med Chem Lett, 2015).
Active and inactive are the calls of the source. The rule behind the calls is not given here.

Columns and labels:
Mus musculus [1] = assay: Neurotoxicity in Swiss albino mouse assessed as motor impairment effects at 1 mg/kg, ip measured for 30 to 180 mins duration by rotarod test relative to control; format: toxicity, organism-based; design: dose 1 mg/kg, route intraperitoneal; conditions: in vivo
Mus musculus [2] = assay: Antidepressant-like activity in Swiss albino mouse assessed as decrease in immobility time at 0.5 mg/kg, ip measured for 5 mins by forced swimming test relative to control; format: functional; conditions: route intraperitoneal
Mus musculus [3] = assay: Neurotoxicity in Swiss albino mouse assessed as effect on locomotor activity measured as horizontal activity at 0.5 mg/kg, ip measured for 2 min at 30 min intervals for 90 mins duration by open field test relative to control; format: toxicity, organism-based; design: dose 0.5 mg/kg, route intraperitoneal; conditions: in vivo, 1.5 h
Mus musculus [4] = assay: Antidepressant-like activity in Swiss albino mouse assessed as decrease in immobility time at 0.5 mg/kg, ip measured for 5 mins by tail suspension test relative to control; format: functional, organism-based; design: dose 0.5 mg/kg
Mus musculus [5] = assay: Neurotoxicity in Swiss albino mouse assessed as effect on locomotor activity measured as total distance travelled at 0.5 mg/kg, ip measured for 2 min at 30 min intervals for 90 mins duration by open field test relative to control; format: toxicity, organism-based; design: dose 0.5 mg/kg, route intraperitoneal; conditions: in vivo, 1.5 h
Mus musculus [6] = assay: Antidepressant-like activity in Swiss albino mouse assessed as decrease in immobility time at 0.25 mg/kg, ip measured for 5 mins by forced swimming test relative to control; format: functional; conditions: for inhibition in vivo at 0.25 mg/kg: route intraperitoneal
Mus musculus [7] = assay: Antidepressant-like activity in Swiss albino mouse assessed as decrease in immobility time at 1 mg/kg, ip measured for 5 mins by forced swimming test relative to control; format: functional, organism-based; design: dose 1 mg/kg
Mus musculus [8] = assay: Antidepressant-like activity in Swiss albino mouse assessed as decrease in immobility time at 20 mg/kg, ip measured for 5 mins by forced swimming test relative to control; format: functional; conditions: route intraperitoneal

| SMILES | inhibition in vivo at 0.5 mg/kg (Mus musculus [2]) [%] | Activity (Mus musculus [4]) | Activity (Mus musculus [7]) | also measured |
| --- | --- | --- | --- | --- |
| COc1ccc(-c2cc3cc(C4C(C#N)=C(N)OC5=C4C(=O)CC(C)(C)C5)cc(C(C)C)c3oc2=O)cc1OC (centres undefined) | 86.6 | Active | Active | Activity (Mus musculus [1]): Non-toxic; Activity (Mus musculus [3]): Non-toxic; Activity (Mus musculus [5]): Non-toxic; inhibition in vivo at 0.25 mg/kg (Mus musculus [6]): 41% |
| COc1cc(-c2cc3cc(C4C(C#N)=C(N)OC5=C4C(=O)CCC5)cc(C(C)C)c3oc2=O)cc(OC)c1OC (centres undefined) | 31.9 |  |  |  |
| COc1cc(-c2cc3cc(C4C(C#N)=C(N)OC5=C4C(=O)CC(C)(C)C5)cc(C(C)(C)C)c3oc2=O)cc(OC)c1OC (centres undefined) | 30.1 |  |  |  |
| CCC(C)c1cc(C2C(C#N)=C(N)OC3=C2C(=O)CC(C)(C)C3)cc2cc(-c3ccc(OC)c(OC)c3)c(=O)oc12 (centres undefined) | 57.4 | Active | Active | Activity (Mus musculus [1]): Non-toxic; Activity (Mus musculus [3]): Non-toxic; Activity (Mus musculus [5]): Non-toxic; inhibition in vivo at 0.25 mg/kg (Mus musculus [6]): 35% |
| COc1ccc(-c2cc3cc(C4C(C#N)=C(N)OC5=C4C(=O)CC(C)(C)C5)cc(C(C)(C)C)c3oc2=O)cc1 (centres undefined) | 27.2 |  |  |  |
| COc1ccc(-c2cc3cc(C4C(C#N)=C(N)OC5=C4C(=O)CC(C)(C)C5)cc(C(C)(C)C)c3oc2=O)cc1OC (centres undefined) | 22.5 |  |  |  |
| COc1ccc(-c2cc3cc(C4C(C#N)=C(N)OC5=C4C(=O)CCC5)cc(C(C)C)c3oc2=O)cc1OC (centres undefined) | 57.2 | Active | Active | Activity (Mus musculus [1]): Non-toxic; Activity (Mus musculus [3]): Non-toxic; Activity (Mus musculus [5]): Non-toxic; inhibition in vivo at 0.25 mg/kg (Mus musculus [6]): 49% |
| CCC(C)c1cc(C2C(C#N)=C(N)OC3=C2C(=O)CC(C)(C)C3)cc2cc(-c3cc(OC)c(OC)c(OC)c3)c(=O)oc12 (centres undefined) | 28.2 |  | Active |  |
| COc1ccc(-c2cc3cc(C4C(C#N)=C(N)OC5=C4C(=O)CC(C)(C)C5)cc(C(C)C)c3oc2=O)cc1 (centres undefined) | 64.9 | Active | Active | Activity (Mus musculus [1]): Non-toxic; Activity (Mus musculus [3]): Non-toxic; Activity (Mus musculus [5]): Non-toxic; inhibition (Mus musculus [6]): inactive |
| CNCCC(Oc1ccc(C(F)(F)F)cc1)c1ccccc1 (centres undefined) [FLUOXETINE] |  | Active |  | inhibition in vivo at 20 mg/kg (Mus musculus [8]): 69.8% |
| COc1ccc(-c2cc3cc(C4C(C#N)=C(N)OC5=C4C(=O)CCC5)cc(C(C)(C)C)c3oc2=O)cc1 (centres undefined) | 30.6 |  | Active |  |
| CCC(C)c1cc(C2C(C#N)=C(N)OC3=C2C(=O)CC(C)(C)C3)cc2cc(-c3ccc(OC)cc3)c(=O)oc12 (centres undefined) | 26.9 |  | Active |  |
| COc1cc(-c2cc3cc(C4C(C#N)=C(N)OC5=C4C(=O)CC(C)(C)C5)cc(C)c3oc2=O)cc(OC)c1OC (centres undefined) | 6.37 |  |  |  |
| CCC(C)c1cc(C2C(C#N)=C(N)OC3=C2C(=O)CCC3)cc2cc(-c3ccc(OC)cc3)c(=O)oc12 (centres undefined) | 35 |  | Active |  |
| COc1ccc(-c2cc3cc(C4C(C#N)=C(N)OC5=C4C(=O)CCC5)cc(C(C)(C)C)c3oc2=O)cc1OC (centres undefined) | -16.6 |  |  |  |
| COc1ccc(-c2cc3cc(C4C(C#N)=C(N)OC5=C4C(=O)CCC5)cc(C(C)C)c3oc2=O)cc1 (centres undefined) | 69.7 | Active | Active | Activity (Mus musculus [1]): Non-toxic; Activity (Mus musculus [3]): Non-toxic; Activity (Mus musculus [5]): Non-toxic; inhibition (Mus musculus [6]): inactive |
| CCC(C)c1cc(C2C(C#N)=C(N)OC3=C2C(=O)CCC3)cc2cc(-c3cc(OC)c(OC)c(OC)c3)c(=O)oc12 (centres undefined) | 56.1 | Active | Active | Activity (Mus musculus [1]): Non-toxic; Activity (Mus musculus [3]): Non-toxic; Activity (Mus musculus [5]): Non-toxic; inhibition (Mus musculus [6]): inactive |
| CN(C)CCCN1c2ccccc2CCc2ccccc21 |  | Active |  |  |
| COc1ccc(-c2cc3cc(C4C(C#N)=C(N)OC5=C4C(=O)CC(C)(C)C5)cc(C)c3oc2=O)cc1OC (centres undefined) | 10.4 |  |  |  |
| COc1cc(-c2cc3cc(C4C(C#N)=C(N)OC5=C4C(=O)CCC5)cc(C(C)(C)C)c3oc2=O)cc(OC)c1OC (centres undefined) | 5.33 |  |  |  |
| COc1cc(-c2cc3cc(C4C(C#N)=C(N)OC5=C4C(=O)CC(C)(C)C5)cc(C(C)C)c3oc2=O)cc(OC)c1OC (centres undefined) | 29.2 |  | Active |  |
| COc1cc(-c2cc3cc(C4C(C#N)=C(N)OC5=C4C(=O)CCC5)cc(C)c3oc2=O)cc(OC)c1OC (centres undefined) | 5.22 |  |  |  |
